The record followed here is patent publication US10112935B2, “Indazolyl thiadiazolamines and related compounds for inhibition of Rho-associated protein kinase and the treatment of disease” (Lycera Corporation, priority 2015, dated 2018).

Test [1] deals with GST-tagged human ROCK1 catalytic domain 1-477 (Homo sapiens (Human), UniProt Q13464). Description: Inhibition of Rho-associated protein kinase isoform 1 (LANCE Ultra ULight-CREBtide FRET kinase assay). Type of test: biochemical. The settings on record: 30 μM was the highest concentration analyzed. The procedure, abridged:
(§1)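 Baculovirus-expressed kinase phosphorylated ULight-CREBtide for 90 min at room temperature before the reaction was stopped with 10 mM EDTA. Phospho-substrate was detected by TR-FRET with 1 nM Europium-anti-phospho-CREB (Ser133) antibody after 60 min at room temperature.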
In general terms: TR-FRET usually uses a lanthanide donor and a delayed reading to cut background.

Test [2] addresses GST-tagged human ROCK2 catalytic domain 1-553 (Homo sapiens (Human), UniProt O75116). In words: Inhibition of Rho-associated protein kinase isoform 2 (LANCE Ultra ULight-CREBtide FRET kinase assay). Type of test: biochemical. The conditions noted are these: for IC50: 30 μM was the highest concentration analyzed; for Selectivity for ROCK2 over ROCK1 (IC50 ROCK1 / IC50 ROCK2): selectivity ROCK2 vs ROCK1. The procedure, abridged:
as §1

As usually defined, the IC50 is the concentration needed to halve the response being measured.

Sequence of GST-tagged human ROCK1 catalytic domain 1-477 (Q13464 1-477): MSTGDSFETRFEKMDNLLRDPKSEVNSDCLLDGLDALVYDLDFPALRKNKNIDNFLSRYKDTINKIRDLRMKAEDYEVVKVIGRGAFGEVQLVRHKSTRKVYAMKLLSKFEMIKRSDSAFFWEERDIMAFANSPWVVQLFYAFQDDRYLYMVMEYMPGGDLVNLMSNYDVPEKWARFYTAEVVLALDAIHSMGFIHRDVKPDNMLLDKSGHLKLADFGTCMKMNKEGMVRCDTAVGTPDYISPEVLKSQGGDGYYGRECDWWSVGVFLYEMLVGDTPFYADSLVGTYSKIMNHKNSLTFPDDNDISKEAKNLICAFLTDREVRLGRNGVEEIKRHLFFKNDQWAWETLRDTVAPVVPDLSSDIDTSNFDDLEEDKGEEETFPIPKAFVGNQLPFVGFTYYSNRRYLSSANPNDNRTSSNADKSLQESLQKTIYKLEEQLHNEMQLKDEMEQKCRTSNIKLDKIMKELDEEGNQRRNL
Sequence of GST-tagged human ROCK2 catalytic domain 1-553 (O75116 1-553): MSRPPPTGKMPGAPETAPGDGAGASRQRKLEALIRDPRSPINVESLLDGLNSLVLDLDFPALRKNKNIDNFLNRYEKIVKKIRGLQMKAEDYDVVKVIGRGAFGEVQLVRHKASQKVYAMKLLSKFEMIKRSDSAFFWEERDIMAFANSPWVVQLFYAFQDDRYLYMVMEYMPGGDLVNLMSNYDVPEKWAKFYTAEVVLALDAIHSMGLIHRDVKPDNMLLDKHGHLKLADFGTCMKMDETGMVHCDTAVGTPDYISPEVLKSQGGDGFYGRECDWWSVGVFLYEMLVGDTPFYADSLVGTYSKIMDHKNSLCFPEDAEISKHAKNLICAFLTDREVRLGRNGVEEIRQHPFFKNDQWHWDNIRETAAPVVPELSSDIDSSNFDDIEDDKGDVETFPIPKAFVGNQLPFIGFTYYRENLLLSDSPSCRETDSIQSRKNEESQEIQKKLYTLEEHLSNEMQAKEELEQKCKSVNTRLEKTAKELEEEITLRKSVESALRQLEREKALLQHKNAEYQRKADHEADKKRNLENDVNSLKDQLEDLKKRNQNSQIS

In turn, `CCn1cc(C(=O)Nc2cccc(-c3nnc(Nc4ccc5[nH]ncc5c4)s3)c2)cn1` [Example A-16] displayed an IC50 in test [1] of less than 1 µM. Besides, in test [2], the IC50 was less than 1 µM and the “Selectivity for ROCK2 over ROCK1 (IC50 ROCK1 / IC50 ROCK2)” value (from here on “Selectivity … (IC50 ROCK1 / IC50 ROCK2)”) is greater than 5.

In turn, `O=C(Nc1cncc(-c2nnc(Nc3ccc4[nH]ncc4c3)s2)c1)c1c[nH]cn1` [Example A-37] displayed an IC50 in test [1] greater than 30 µM. Further, in test [2], the concentration for half-maximal inhibition (IC50) was less than 1 µM and the “Selectivity … (IC50 ROCK1 / IC50 ROCK2)” value is recorded as greater than 100.

For the compound `O=C(Nc1cccc(-c2nnc(Nc3ccc4[nH]ncc4c3)s2)c1)c1cn[nH]c1` [Example A-46], the IC50 in test [1] was greater than 30 µM. Moreover, in test [2], the IC50 is less than 1 µM and the “Selectivity … (IC50 ROCK1 / IC50 ROCK2)” value is given as greater than 100.

`CC(=O)Nc1ccc(C)c(-c2nnc(Nc3ccc4[nH]ncc4c3Cl)s2)c1.O=C(O)C(F)(F)F` [Example 48I] gave an IC50 in test [1] of less than 1 µM. In test [2], the 50% inhibitory concentration (IC50) was less than 1 µM and the “Selectivity … (IC50 ROCK1 / IC50 ROCK2)” value was greater than 5.

In test [1], `O=C(O)c1cccc(-c2nnc(Nc3ccc4[nH]ncc4c3)s2)c1` [Example A-9] showed an IC50 of 15 to 30 µM. In test [2], the IC50 fell in the range of 1 to 15 µM and the “Selectivity … (IC50 ROCK1 / IC50 ROCK2)” value is given as greater than 5.

Consider `Clc1c(Nc2nnc(-c3cccn4cc(-c5ccc(Br)cc5)nc34)s2)ccc2[nH]ncc12` [Example 52E], for which the IC50 was greater than 30 µM in test [1] and less than 1 µM in test [2]. In test [2], the “Selectivity … (IC50 ROCK1 / IC50 ROCK2)” value is listed as greater than 100.

With `Cc1cnn(CC(=O)Nc2cccc(-c3nnc(Nc4ccc5[nH]ncc5c4Cl)s3)c2)c1` [Example 35BI], the IC50 is 1 to 15 µM in test [1] and less than 1 µM in test [2]. Besides, the “Selectivity … (IC50 ROCK1 / IC50 ROCK2)” value in test [2] is reported as greater than 100.

The compound `CCS(=O)(=O)Nc1cncc(-c2nnc(Nc3ccc4[nH]ncc4c3)s2)c1.O=C(O)C(F)(F)F` [Example 35CN] showed an IC50 in test [1] of 1 to 15 µM. For the same compound, in test [2], the IC50 lay within 1 to 15 µM and the “Selectivity … (IC50 ROCK1 / IC50 ROCK2)” value was greater than 5.

On to `NC1CCN(C(=O)Nc2cccc(-c3nnc(Nc4ccc5[nH]ncc5c4)s3)c2)C1` (centres unmarked) [Example A-35], for which, in test [1], the IC50 lay within 1 to 15 µM. Further, in test [2], the IC50 is less than 1 µM and the “Selectivity … (IC50 ROCK1 / IC50 ROCK2)” value was less than 5.

As to `Cc1cc(C(=O)Nc2cccc(-c3nnc(Nc4ccc5[nH]ncc5c4)s3)c2)no1` [Example A-40], the IC50 in test [1] is greater than 30 µM; in test [2] it was less than 1 µM. The “Selectivity … (IC50 ROCK1 / IC50 ROCK2)” value in test [2] is greater than 100.

In the case of `Cn1cc(C(=O)Nc2cc(-c3nnc(Nc4ccc5[nH]ncc5c4)s3)ccn2)cn1.O=C(O)C(F)(F)F` [Example 35BY], in test [1], the IC50 is greater than 30 µM. In test [2], the “Selectivity … (IC50 ROCK1 / IC50 ROCK2)” value is listed as greater than 100.

With `CC(=O)Nc1cc(CN2CCOCC2)cc(-c2nnc(Nc3ccc4[nH]ncc4c3Cl)s2)c1.O=C(O)C(F)(F)F` [Example 48D], the figures for the IC50 in test [1] and in test [2] were 1 to 15 µM and less than 1 µM, respectively. Also, the “Selectivity … (IC50 ROCK1 / IC50 ROCK2)” value in test [2] is greater than 5.

For `O=C(Nc1cccc(-c2nnc(Nc3ccc4[nH]ncc4c3Cl)s2)c1)c1ccc(F)cc1` [Example 35AW], the 50% inhibitory concentration (IC50) in test [1] and in test [2] was less than 1 µM throughout. For the same compound, the “Selectivity … (IC50 ROCK1 / IC50 ROCK2)” value in test [2] is given as greater than 5.

In turn, `CCOc1ccc(CC(=O)Nc2cccc(-c3nnc(Nc4ccc5[nH]ncc5c4Cl)s3)c2)cc1` [Example 35BE] returned an IC50 in test [1] greater than 30 µM. Moreover, in test [2], the IC50 was less than 1 µM and the “Selectivity … (IC50 ROCK1 / IC50 ROCK2)” value was greater than 100.

In test [1], `COc1cccc(C(=O)Nc2cccc(-c3nnc(Nc4ccc5[nH]ncc5c4Cl)s3)c2)c1` [Example 35BT] yielded an IC50 of less than 1 µM. Further, in test [2], the IC50 is less than 1 µM and the “Selectivity … (IC50 ROCK1 / IC50 ROCK2)” value is greater than 5.

As for `N#Cc1ccc(CC(=O)Nc2cccc(-c3nnc(Nc4ccc5[nH]ncc5c4Cl)s3)c2)cc1` [Example 35BK], in test [1], the 50% inhibitory concentration (IC50) was greater than 30 µM. In test [2], the IC50 was less than 1 µM and the “Selectivity … (IC50 ROCK1 / IC50 ROCK2)” value was greater than 100.

In test [1], `Clc1c(Nc2nnc(-c3cccn4cc(C5CCCO5)nc34)s2)ccc2[nH]ncc12` (centres unmarked) [Example 50C] yielded a half-maximal inhibitory concentration (IC50) of less than 1 µM. For the same compound, in test [2], the IC50 was less than 1 µM and the “Selectivity … (IC50 ROCK1 / IC50 ROCK2)” value is greater than 5.

As to `CC(C)(C)CC(=O)Nc1cccc(-c2nnc(Nc3ccc4[nH]ncc4c3Cl)s2)c1` [Example 35M], the values for the IC50 in test [1] and in test [2] were 1 to 15 µM and less than 1 µM, respectively. Moreover, the “Selectivity … (IC50 ROCK1 / IC50 ROCK2)” value in test [2] is reported as greater than 5.

As to `CC(C)(C)c1cn2cccc(-c3nnc(Nc4ccc5[nH]ncc5c4Cl)s3)c2n1` [Example 75T], the IC50 in test [1] and in test [2] was greater than 30 µM throughout.

For `Cn1cc(C(=O)Nc2cc(C(=O)O)cc(-c3nnc(Nc4ccc5[nH]ncc5c4Cl)s3)c2)cn1` [Example 48AC], the IC50 in test [1] was less than 1 µM. For the same compound, in test [2], the half-inhibitory concentration (IC50) is less than 1 µM and the “Selectivity … (IC50 ROCK1 / IC50 ROCK2)” value is given as greater than 5.

Compound `CC(=O)Nc1cc(CN(C)C)cc(-c2nnc(Nc3ccc4[nH]ncc4c3Cl)s2)c1.O=C(O)C(F)(F)F` [Example 48C] yielded an IC50 in test [1] of 1 to 15 µM. Further, in test [2], the IC50 was less than 1 µM and the “Selectivity … (IC50 ROCK1 / IC50 ROCK2)” value is given as greater than 5.

`CCN(CC)Cc1cc(NC(C)=O)cc(-c2nnc(Nc3ccc4[nH]ncc4c3Cl)s2)c1.O=C(O)C(F)(F)F` [Example 48A]: the figures for the IC50 in test [1] and in test [2] were 1 to 15 µM and less than 1 µM, respectively. Besides, the “Selectivity … (IC50 ROCK1 / IC50 ROCK2)” value in test [2] is on record as greater than 5.

Take `CSc1ccc(NC(C)=O)cc1-c1nnc(Nc2ccc3[nH]ncc3c2Cl)s1` [Example 48F]: the IC50 in test [1] is less than 1 µM. In test [2], the IC50 is less than 1 µM and the “Selectivity … (IC50 ROCK1 / IC50 ROCK2)” value was greater than 5.

As to `Cn1cc(C(=O)Nc2cccc(-c3nnc(Nc4ccc5[nH]nc(F)c5c4)s3)c2)cn1` [Example 35BW], the IC50 in test [1] and in test [2] was greater than 30 µM throughout.

With `CC(=O)c1ccc(-c2cn3cccc(-c4nnc(Nc5ccc6[nH]ncc6c5Cl)s4)c3n2)cc1` [Example 51, 1-(4-(8-(5-((4-Chloro-1H-indazol-5-yl)amino)-1,3,4-thiadiazol-2-yl)imidazo[1,2-a]pyridin-2-yl)phenyl)ethan-1-one], the figures for the IC50 in test [1] and in test [2] were greater than 30 µM and less than 1 µM, respectively. In addition, the “Selectivity … (IC50 ROCK1 / IC50 ROCK2)” value in test [2] is greater than 100.

Regarding `CC(=O)Nc1cc(-c2nnc(Nc3ccc4[nH]ncc4c3Cl)s2)cc(C(F)(F)F)c1` [Example 48K], the figures for the IC50 in test [1] and in test [2] were greater than 30 µM and less than 1 µM, respectively. Besides, the “Selectivity … (IC50 ROCK1 / IC50 ROCK2)” value in test [2] is recorded as greater than 100.

The compound `Cn1cc(C(=O)Nc2cc(CC(=O)O)cc(-c3nnc(Nc4ccc5[nH]ncc5c4Cl)s3)c2)cn1` [Example 48R] registered an IC50 in test [1] of less than 1 µM. Besides, in test [2], the concentration for half-maximal inhibition (IC50) was less than 1 µM and the “Selectivity … (IC50 ROCK1 / IC50 ROCK2)” value is greater than 5.

`O=C(O)C(F)(F)F.OCc1cc(-c2ncco2)cc(-c2nnc(Nc3ccc4[nH]ncc4c3Cl)s2)c1` [Example 41C] registered an IC50 in test [1] of less than 1 µM. Besides, in test [2], the IC50 was less than 1 µM and the “Selectivity … (IC50 ROCK1 / IC50 ROCK2)” value is listed as greater than 5.

As for `O=C(Nc1cccc(-c2nnc(Nc3ccc4[nH]ncc4c3F)s2)c1)c1c[nH]cn1` [Example 75N], the IC50 in test [1] and in test [2] was greater than 30 µM each time.

`O=C(Nc1cccc(-c2nnc(Nc3ccc4[nH]ncc4c3)s2)c1)c1cnn(CCO)c1` [Example A-20]: the IC50 in test [1] was greater than 30 µM; in test [2], less than 1 µM. In addition, in test [2], the “Selectivity … (IC50 ROCK1 / IC50 ROCK2)” value is reported as greater than 100.
